Here are results for 22 compounds from patent publication US8143263B2, “Therapeutic agents” (Astrazeneca AB, priority 2008, dated 2012).

The target in this test is T1, recombinant human pancreatic GLK (Homo sapiens, UniProt P35557).
T1 sequence (P35557 1-465): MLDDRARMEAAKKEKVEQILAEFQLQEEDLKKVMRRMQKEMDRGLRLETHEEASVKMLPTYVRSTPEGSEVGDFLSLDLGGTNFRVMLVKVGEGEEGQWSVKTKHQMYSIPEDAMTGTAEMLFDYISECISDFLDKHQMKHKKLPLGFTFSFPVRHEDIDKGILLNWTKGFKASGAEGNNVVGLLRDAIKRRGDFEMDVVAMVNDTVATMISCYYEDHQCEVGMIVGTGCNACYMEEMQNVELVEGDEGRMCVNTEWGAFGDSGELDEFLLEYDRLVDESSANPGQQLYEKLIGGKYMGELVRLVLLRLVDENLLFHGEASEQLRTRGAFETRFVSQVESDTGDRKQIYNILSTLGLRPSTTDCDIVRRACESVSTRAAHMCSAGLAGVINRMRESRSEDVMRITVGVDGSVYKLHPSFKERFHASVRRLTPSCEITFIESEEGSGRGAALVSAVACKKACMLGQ
Kind of test: biochemical.
As a reminder, the EC50 is the concentration needed to bring the measured effect to its halfway point. Consider `O=C(Nc1ccc(Cl)cn1)[C@H](COCCO)Oc1ncnc2c1cnn2-c1cccc(Cl)c1Cl` [Example 202, (2S)—N-(5-chloropyridin-2-yl)-2-(1-(2,3-dichlorophenyl)-1H-pyrazolo[3,4-d]pyrimidin-4-yloxy)-3-(2-hydroxyethoxy)propanamide], for which the EC50 worked out at 340 nM.

In the case of `N#Cc1ccc(NC(=O)[C@H](COCCO)Oc2ncnc3c2cnn3-c2cccc(Cl)c2Cl)nc1` [Example 203, (2S)—N-(5-cyanopyridin-2-yl)-2-(1-(2,3-dichlorophenyl)-1H-pyrazolo[3,4-d]pyrimidin-4-yloxy)-3-(2-hydroxyethoxy)propanamide], the half-maximal effective concentration (EC50) stood at 830 nM. Regarding `Cc1ccc(NC(=O)[C@H](COC[C@H](C)O)Oc2ncnc3c2cnn3-c2ncccc2Cl)nc1` [Example 204, (2S)-2-(1-(3-chloropyridin-2-yl)-1H-pyrazolo[3,4-d]pyrimidin-4-yloxy)-3-((S)-2-hydroxypropoxy)-N-(5-methylpyridin-2-yl)propanamide], the EC50 amounted to 1300 nM. To `Cc1ccc(NC(=O)[C@H](CN2CC(O)C2)Oc2ncnc3c2cnn3-c2ccccc2Cl)nc1` [Example 205, (2S)-2-(1-(2-chlorophenyl)-1H-pyrazolo[3,4-d]pyrimidin-4-yloxy)-3-(3-hydroxyazetidin-1-yl)-N-(5-methylpyridin-2-yl)propanamide] belongs 240 nM; to `Cc1ccc(NC(=O)[C@H](CN2CC(O)C2)Oc2ncnc3c2cnn3-c2ncccc2Cl)nc1` [Example 206, (2S)-2-(1-(3-chloropyridin-2-yl)-1H-pyrazolo[3,4-d]pyrimidin-4-yloxy)-3-(3-hydroxyazetidin-1-yl)-N-(5-methylpyridin-2-yl)propanamide], 570 nM; to `Cc1c(C#N)cccc1-n1ncc2c(O[C@@H](COCCO)C(=O)Nc3ccc(C#N)cn3)ncnc21` [Example 207, (2S)-2-(1-(3-cyano-2-methylphenyl)-1H-pyrazolo[3,4-d]pyrimidin-4-yloxy)-N-(5-cyanopyridin-2-yl)-3-(2-hydroxyethoxy)propanamide], 5000 nM. Turning to `Cc1ccc(NC(=O)[C@H](COCCO)Oc2ncnc3c2cnn3-c2cccc(C#N)c2C)nc1` [Example 208, (2S)-2-(1-(3-cyano-2-methylphenyl)-1H-pyrazolo[3,4-d]pyrimidin-4-yloxy)-3-(2-hydroxyethoxy)-N-(5-methylpyridin-2-yl)propanamide], the EC50 amounted to 2800 nM. As for `Cc1c(C#N)cccc1-n1ncc2c(O[C@@H](COCCO)C(=O)Nc3ccc(Cl)cn3)ncnc21` [Example 209, (2S)—N-(5-chloropyridin-2-yl)-2-(1-(3-cyano-2-methylphenyl)-1H-pyrazolo[3,4-d]pyrimidin-4-yloxy)-3-(2-hydroxyethoxy)propanamide], the EC50 came to 1500 nM. In the case of `CCOC[C@H](Oc1ncnc2c1cnn2-c1nccn1C)C(=O)Nc1ccc(Cl)cn1` [Example 210, (2S)—N-(5-chloropyridin-2-yl)-3-ethoxy-2-(1-(1-methyl-1H-imidazol-2-yl)-1H-pyrazolo[3,4-d]pyrimidin-4-yloxy)propanamide], the EC50 came out at 1200 nM. `Cc1ccc(NC(=O)[C@H](COC(C)C)Oc2ncnc3c2cnn3-c2nccn2C)nc1` [Example 211, (2S)-3-isopropoxy-2-(1-(1-methyl-1H-imidazol-2-yl)-1H-pyrazolo[3,4-d]pyrimidin-4-yloxy)-N-(5-methylpyridin-2-yl)propanamide]: the EC50 turned out to be 1100 nM. Consider `O=C(Nc1ccc(Cl)cn1)[C@H](CCCO)Oc1ncnc2c1cnn2-c1ncccc1Cl` [Example 212, (2S)—N-(5-chloropyridin-2-yl)-2-(1-(3-chloropyridin-2-yl)-1H-pyrazolo[3,4-d]pyrimidin-4-yloxy)-5-hydroxypentanamide], for which the EC50 came to 490 nM.

Turning to `N#Cc1ccc(NC(=O)[C@H](CCCO)Oc2ncnc3c2cnn3-c2ncccc2Cl)nc1` [Example 213, (2S)-2-(1-(3-chloropyridin-2-yl)-1H-pyrazolo[3,4-d]pyrimidin-4-yloxy)-N-(5-cyanopyridin-2-yl)-5-hydroxypentanamide], the EC50 worked out at 1100 nM. With `CCOC[C@H](Oc1ncnc2c1cnn2-c1cccc(Cl)c1Cl)C(=O)Nc1ccc(C#N)cn1` [Example 214, (2S)—N-(5-cyanopyridin-2-yl)-2-(1-(2,3-dichlorophenyl)-1H-pyrazolo[3,4-d]pyrimidin-4-yloxy)-3-ethoxypropanamide], the EC50 turned out to be 320 nM.

On to `O=C(Nc1ccc(F)cn1)[C@H](CN1CC(O)C1)Oc1ncnc2c1cnn2-c1ccccc1Cl` [Example 215, (2S)-2-[1-(2-chlorophenyl)pyrazolo[4,5-e]pyrimidin-4-yl]oxy-N-(5-fluoro-2-pyridyl)-3-(3-hydroxyazetidin-1-yl)propanamide], for which the EC50 worked out at 229 nM.

As to `C[C@H](CO)OC[C@H](Oc1ncnc2c1cnn2-c1c(Cl)cccc1C#N)C(=O)Nc1ccc(Cl)cn1` [Example 216, (2S)-2-[1-(2-chloro-6-cyano-phenyl)pyrazolo[4,5-e]pyrimidin-4-yl]oxy-N-(5-chloro-2-pyridyl)-3-[(1R)-2-hydroxy-1-methyl-ethoxy]propanamide], the EC50 is 163 nM. Turning to `O=C(Nc1ccc(F)cn1)[C@H](COCCO)Oc1ncnc2c1cnn2-c1c(Cl)cccc1Cl` [Example 218, (2S)-2-[1-(2,6-dichlorophenyl)pyrazolo[4,5-e]pyrimidin-4-yl]oxy-N-(5-fluoro-2-pyridyl)-3-(2-hydroxyethoxy)propanamide], the EC50 came to 215 nM. In the case of `Cc1cnc(NC(=O)[C@H](CN2CC(O)C2)Oc2ncnc3c2cnn3-c2ccccc2Cl)cn1` [Example 219, (2S)-2-[1-(2-chlorophenyl)pyrazolo[4,5-e]pyrimidin-4-yl]oxy-3-(3-hydroxyazetidin-1-yl)-N-(5-methylpyrazin-2-yl)propanamide] it was 280 nM. For `N#Cc1cccc(Cl)c1-n1ncc2c(O[C@@H](CN3CCC3)C(=O)Nc3ccccn3)ncnc21` [Example 221, (2S)-3-(azetidin-1-yl)-2-[1-(2-chloro-6-cyano-phenyl)pyrazolo[3,4-d]pyrimidin-4-yl]oxy-N-(2-pyridyl)propanamide], the EC50 was found to be 310 nM. In the case of `O=C(Nc1ccccn1)[C@H](CN1CC(O)C1)Oc1ncnc2c1cnn2-c1c(F)cccc1Cl` [Example 222, (2S)-2-[1-(2-chloro-6-fluoro-phenyl)pyrazolo[3,4-d]pyrimidin-4-yl]oxy-3-(3-hydroxyazetidin-1-yl)-N-(2-pyridyl)propanamide] it was 140 nM.

Turning to `N#Cc1ccc(NC(=O)[C@H](CN2CC(O)C2)Oc2ncnc3c2cnn3-c2ccccc2Cl)nc1` [Example 223, (2S)-2-[1-(2-chlorophenyl)pyrazolo[3,4-d]pyrimidin-4-yl]oxy-N-(5-cyano-2-pyridyl)-3-(3-hydroxyazetidin-1-yl)propanamide], the EC50 stood at 310 nM.

For the compound `N#Cc1ccc(NC(=O)[C@H](CN2CC(O)C2)Oc2ncnc3c2cnn3-c2c(Cl)cccc2C#N)nc1` [Example 224, (2S)-2-[1-(2-chloro-6-cyano-phenyl)pyrazolo[3,4-d]pyrimidin-4-yl]oxy-N-(5-cyano-2-pyridyl)-3-(3-hydroxyazetidin-1-yl)propanamide], the EC50 is 510 nM.

With `O=C(Nc1ccccn1)[C@H](CN1CC(O)C1)Oc1ncnc2c1cnn2-c1ccccc1Cl` [Example 225, (2S)-2-[1-(2-chlorophenyl)pyrazolo[3,4-d]pyrimidin-4-yl]oxy-3-(3-hydroxyazetidin-1-yl)-N-(2-pyridyl)propanamide], the EC50 came out at 220 nM.
